Measurements as given in US10717997B2, “Method for storing gaseous hydrogen through producing methanoate (formate)” (Johann Wolfgang Goethe-Universität, priority 2013, dated 2020).
“Also recorded” adds a separate entry of the source.

Tested on: cell suspensions of A. woodii
Test: Formate production by whole cell catalysis, cell suspensions of A. woodii converting H2 and CO2
Format: cell-based, Acetobacterium woodii
Settings: ETH2120 30 μM
Description: Cell suspensions of A. woodii (1 mg/ml) were incubated using a gas phase of 0.8×10^5 Pa H2 and 0.2×10^5 Pa CO2 (1A). Adding the Na^+ ionophore ETH2120 (30 μM) gives rise to the production of up to 8 mM formate and the production of acetate stopped (1B). For experiments with whole cells, the inventors used cell suspensions of A. woodii for the conversion of H2 and CO2 to formate. The energy metabolism of A. woodii is strictly sodium ion dependent, and the ATP synthase uses Na^+ as the coupling ion. Thus, by omitting sodium ions in the buffer or by adding sodium ionophores (the inventors used the ionophore ETH2120 in this study), it is possible to switch off the energy metabolism specifically. Cells suspended in imidazole buffer (50 mM imidazole, 20 mM MgSO4, 20 mM KCl, 4 mM DTE, pH 7.0) containing 20 mM NaCl converted H2+CO2 to acetate, and only small amounts of formate were produced from a gas phase of 0.8×10^5 Pa II2 and 0.2×10^5 CO2. […] In agreement with the results obtained from the purified enzyme, foimate production was also observed when hydrogen was absent and the electron donor was CO but with lower rates compared to hydrogen as electron donor.

Compound: O=C(COc1ccccc1OCC(=O)N(C1CCCCC1)C1CCCCC1)N(C1CCCCC1)C1CCCCC1 [ETH2120, N,N,N′,N′-Tetracyclohexyl-1,2-phenylenedioxydiacetamide]
- production of formate (concentration reached) (A. woodii cell suspension (1 mg/ml), gas phase 0.8×10^5 Pa H2 and 0.2×10^5 Pa CO2): up to 8 mM
- acetate production (A. woodii cell suspension (1 mg/ml), gas phase 0.8×10^5 Pa H2 and 0.2×10^5 Pa CO2, imidazole buffer with 20 mM NaCl): stopped; also recorded: ceased almost completely
- initial rate of formate production (A. woodii cells in imidazole buffer with 20 mM NaCl, gas phase 0.8×10^5 Pa H2 and 0.2×10^5 CO2): 2 μmol/min×mg cell protein
